Our source for the IC50 values is patent publication US20190119282A1, “IMIDAZOPYRIDAZINES USEFUL AS INHIBITORS OF THE PAR-2 SIGNALING PATHWAY” (Vertex Pharmaceuticals Incorporated, priority 2013, published 2019).

Bounds are passed on as bounds.

The target of assay [1] is T1, PAR2 (HT-29 cells, trypsin activation) (Homo sapiens, UniProt P55085).
T1 construct: host or cells: HT-29 cells
T1 sequence (P55085 26-397): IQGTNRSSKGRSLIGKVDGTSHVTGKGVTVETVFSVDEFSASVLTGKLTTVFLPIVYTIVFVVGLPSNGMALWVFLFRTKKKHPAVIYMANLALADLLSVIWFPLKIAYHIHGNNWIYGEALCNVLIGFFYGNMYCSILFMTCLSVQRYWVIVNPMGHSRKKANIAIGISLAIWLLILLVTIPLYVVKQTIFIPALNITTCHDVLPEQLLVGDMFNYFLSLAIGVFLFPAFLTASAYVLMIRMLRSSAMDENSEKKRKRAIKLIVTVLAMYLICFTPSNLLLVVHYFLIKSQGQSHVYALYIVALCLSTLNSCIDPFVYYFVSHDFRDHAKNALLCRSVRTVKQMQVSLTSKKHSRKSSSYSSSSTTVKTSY
Put plainly: Ca FLIPR TETRA assay, ANTAGONIST mode, stimulation with 3.1 U/mL trypsin. It counts as cell-based. To be noted: HT-29 cells, antagonist mode, stimulation with 3.1 U/mL trypsin. A digest of the protocol:
(§1)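 FLIPR Tetra Ca2+ read-out in HT-29 cells, calcium 5 dye. Compound preincubation 30 min r.t., with an initial read for agonist activity. Final activator levels: SLIGKV 8 μM, thrombin 1 U/mL, trypsin 3.1 U/mL, UTP 0.6 μM.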

Assay [2] relates to Thrombin-stimulated Ca2+ response in HT-29 cells. Put plainly: Ca FLIPR TETRA assay, ANTAGONIST mode, stimulation with 1 U/mL Thrombin. It counts as cell-based, human. The note with it: Homo sapiens; HT-29 cells, antagonist mode, stimulation with 1 U/mL Thrombin. The gist of the method: as §1
Assay [3] deals with T2, PAR2 (HT-29 cells, SLIGKV activation) (Homo sapiens, UniProt P55085).
T2 construct: host or cells: HT-29 cells
T2 sequence (P55085 26-397): T1 sequence (P55085 26-397)
Put plainly: Ca FLIPR TETRA assay, ANTAGONIST mode, stimulation with 8 μM SLIGKV. It counts as cell-based. The note with it: HT-29 cells, antagonist mode, stimulation with 8 μM SLIGKV. A digest of the protocol: as §1

The subject of assay [4] is UTP-stimulated Ca2+ response in HT-29 cells. Put plainly: Ca FLIPR TETRA assay, ANTAGONIST mode, stimulation with 0.6 μM UTP. It counts as cell-based, human. To be noted: Homo sapiens; HT-29 cells, antagonist mode, stimulation with 0.6 μM UTP. The gist of the method:
as §1

For orientation: IC50 means the midpoint of a concentration-inhibition curve. In the case of `CN(C)C(=O)CN1CCN(C(=O)c2cn3nc(-c4ccc(F)cc4)cc(C(C)(C)C)c3n2)C(C)(C)C1=O` [Compound I-194], the IC50 in assay [1] is 40.3 nM; in assay [2] it was more than 1000 nM; in assay [3] it was 41.3 nM; in assay [4], more than 1000 nM.
As for `CC(C)c1cc(-c2ccc(F)cc2)nn2cc(C(=O)N3CCN(C(=O)C(O)C(C)C)C[C@H]3C)nc12` (stereo partly shown) [Compound I-195], the IC50 in assay [1] was more than 1000 nM; in assay [2], more than 1000 nM; in assay [3], 570 nM; in assay [4], more than 1000 nM.
`CC(C)c1cc(-c2ccc(F)cc2)nn2cc(C(=O)N3CCN(C(=O)[C@H](O)CC(C)(C)C)C[C@H]3C)nc12` [Compound I-196]: the half-maximal inhibitory concentration (IC50) in assay [1] was 20 nM; in assay [2], more than 1000 nM; in assay [3], 20.5 nM; in assay [4] it was more than 1000 nM.
`CC(C)c1cc(-c2ccc(F)cc2)nn2cc(C(=O)N3CCN(C(=O)[C@H](O)CC(C)(C)C)C[C@@H]3C)nc12` [Compound I-197]: the IC50 in assay [1] is 430 nM; in assay [2], more than 1000 nM; in assay [3] it was 150 nM; in assay [4] it was more than 1000 nM.
`CC(C)(O)C(=O)N1CCN(C(=O)c2cn3nc(-c4ccc(F)cc4)cc(C(C)(C)C)c3n2)C(C)(C)C1` [Compound I-198]: the IC50 is 5.6 nM in assay [1], more than 1000 nM in assay [2], 4.4 nM in assay [3] and more than 1000 nM in assay [4].
Regarding `CC(C)(C)c1cc(-c2ccc(F)cc2)nn2cc(C(=O)N3CCN(C(=O)C4CCCO4)CC3(C)C)nc12` (stereo not shown) [Compound I-200], the IC50 in assay [1] is 2.9 nM; in assay [2], more than 1000 nM; in assay [3] it was 2.4 nM; in assay [4], more than 1000 nM.
Consider `CC(C)(C)c1cc(-c2ccc(F)cc2)nn2cc(C(=O)N3CCN(C(=O)c4ccno4)CC3(C)C)nc12` [Compound I-202], for which the IC50 was 0.9 nM in assay [1], more than 1000 nM in assay [2], 0.6 nM in assay [3] and more than 1000 nM in assay [4].
Take `CC(C)(C)c1cc(-c2ccc(F)cc2)nn2cc(C(=O)N3CCN(C(=O)c4ccon4)CC3(C)C)nc12` [Compound I-203]: the IC50 in assay [1] was 1 nM; in assay [2], more than 1000 nM; in assay [3], 0.7 nM; in assay [4], more than 1000 nM.
For the compound `CC1(C)CN(C(=O)C2CC(O)(C(F)(F)F)C2)CCN1C(=O)c1cn2nc(-c3ccc(F)cc3)cc(C3CCOCC3)c2n1` (stereo not shown) [Compound I-204], the IC50 in assay [1] was 93 nM; in assay [2], more than 1000 nM; in assay [3] it was 42.5 nM; in assay [4] it was more than 1000 nM.
Turning to `CC(C)(C)c1cc(-c2ccc(F)cc2)nn2cc(C(=O)N3CCNCC3(C)C)nc12` [Compound I-205], the IC50 in assay [1] was 580 nM; in assay [2], more than 1000 nM; in assay [3] it was 310 nM; in assay [4], more than 1000 nM.
For `CC(C)(C)c1cc(-c2ccc(F)cc2)nn2cc(C(=O)N3CCN(C4CC4)C(=O)C3(C)C)nc12` [Compound I-206], the IC50 is 0.8 nM in assay [1], more than 1000 nM in assay [2], 0.8 nM in assay [3] and more than 1000 nM in assay [4].
With `CC(C)N1CCN(C(=O)c2cn3nc(-c4ccc(F)cc4)cc(C(C)(C)C)c3n2)C(C)(C)C1=O` [Compound I-207], the IC50 in assay [1] is 8.3 nM; in assay [2], more than 1000 nM; in assay [3], 9.8 nM; in assay [4], more than 1000 nM.
For `CC(C)(C)c1cc(-c2ccc(F)cc2)nn2cc(C(=O)N3CCN(C(F)F)C(=O)C3(C)C)nc12` [Compound I-208], the IC50 in assay [1] was 103 nM; in assay [2], more than 1000 nM; in assay [3], 85 nM; in assay [4], more than 1000 nM.
For the compound `C[C@@H]1C[C@H](c2cc(-c3ccc(F)cc3)nn3cc(C(=O)N4CCN(C(=O)OC(C)(C)C)CC4(C)C)nc23)C[C@H](C)O1` [Compound I-209], the IC50 is 16.6 nM in assay [1], more than 1000 nM in assay [2], 16.6 nM in assay [3] and more than 1000 nM in assay [4].
Turning to `CC(C)(C)c1cc(-c2ccc(F)cc2)nn2cc(C(=O)N3CCN(C4COC4)C(=O)C3(C)C)nc12` [Compound I-210], the 50% inhibitory concentration (IC50) in assay [1] was 3.5 nM; in assay [2], more than 1000 nM; in assay [3], 4 nM; in assay [4], more than 1000 nM.
With `CCN1CCN(C(=O)c2cn3nc(-c4ccc(F)cc4)cc(C(C)(C)C)c3n2)C(C)(C)C1=O` [Compound I-211], the IC50 in assay [1] is 4.5 nM; in assay [2], more than 1000 nM; in assay [3] it was 5.4 nM; in assay [4], more than 1000 nM.
Consider `C=C(C)c1cc(-c2ccc(F)cc2)nn2cc(C(=O)N3CCN(C)C(=O)C3(C)C)nc12` [Compound I-212], for which the IC50 in assay [1] is 54.7 nM; in assay [2], more than 1000 nM; in assay [3], 90.3 nM; in assay [4], more than 1000 nM.
With `C[C@@H]1C[C@H](c2cc(-c3ccc(F)cc3)nn3cc(C(=O)N4CCN(C(=O)c5ccn[nH]5)CC4(C)C)nc23)C[C@H](C)O1` [Compound I-214], the IC50 in assay [1] is 26.8 nM; in assay [2], not below 1000 nM; in assay [3], 21.2 nM; in assay [4], more than 1000 nM.
In the same order, the values of `CC(C)c1cc(-c2ccc(C(F)(F)F)cc2)nn2cc(C(=O)N3CCN(C(=O)C(C)(C)O)CC3(C)C)nc12` [Compound I-215] are 18.2 nM, more than 1000 nM, 12 nM and more than 1000 nM.
In the same order, the values of `Cc1cccc(-c2cc(C(C)C)c3nc(C(=O)N4CCN(C(=O)C(C)(C)O)CC4(C)C)cn3n2)c1` [Compound I-216] are 190 nM, more than 1000 nM, 108 nM and more than 1000 nM.
For the compound `CC(C)c1cc(-c2cccc(C(F)(F)F)c2)nn2cc(C(=O)N3CCN(C(=O)C(C)(C)O)CC3(C)C)nc12` [Compound I-217], the IC50 was 545 nM in assay [1], more than 1000 nM in assay [2], 205 nM in assay [3] and more than 1000 nM in assay [4].
As for `Cc1ccc(-c2cc(C(C)C)c3nc(C(=O)N4CCN(C(=O)C(C)(C)O)CC4(C)C)cn3n2)cc1` [Compound I-218], the half-maximal inhibitory concentration (IC50) in assay [1] was 39.8 nM; in assay [2] it was more than 1000 nM; in assay [3] it was 24.8 nM; in assay [4], more than 1000 nM.
As for `CC(C)c1cc(-c2ccc(OC(F)(F)F)cc2)nn2cc(C(=O)N3CCN(C(=O)C(C)(C)O)CC3(C)C)nc12` [Compound I-219], the IC50 in assay [1] is 360 nM; in assay [2], more than 1000 nM; in assay [3] it was 143 nM; in assay [4] it was more than 1000 nM.
`CC(C)c1cc(-c2ccc(C#N)cc2)nn2cc(C(=O)N3CCN(C(=O)C(C)(C)O)CC3(C)C)nc12` [Compound I-220]: the IC50 is 880 nM in assay [1], more than 1000 nM in assay [2], 760 nM in assay [3] and more than 1000 nM in assay [4].
For `CC(C)c1cc(-c2ccc(F)c(F)c2)nn2cc(C(=O)N3CCN(C(=O)C(C)(C)O)CC3(C)C)nc12` [Compound I-221], the half-inhibitory concentration (IC50) was 39.5 nM in assay [1], more than 1000 nM in assay [2], 23.3 nM in assay [3] and more than 1000 nM in assay [4].
`CC(C)c1cc(-c2ccc(F)c(C(F)(F)F)c2)nn2cc(C(=O)N3CCN(C(=O)C(C)(C)O)CC3(C)C)nc12` [Compound I-222]: the 50% inhibitory concentration (IC50) in assay [1] is 205 nM; in assay [2], more than 1000 nM; in assay [3], 108 nM; in assay [4], more than 1000 nM.
Regarding `Cc1cc(-c2cc(C(C)C)c3nc(C(=O)N4CCN(C(=O)C(C)(C)O)CC4(C)C)cn3n2)ccc1F` [Compound I-223], the IC50 in assay [1] was 26.7 nM; in assay [2] it was more than 1000 nM; in assay [3] it was 16.3 nM; in assay [4], more than 1000 nM.
Take `CC(C)c1cc(-c2cc(F)cc(F)c2)nn2cc(C(=O)N3CCN(C(=O)C(C)(C)O)CC3(C)C)nc12` [Compound I-224]: the IC50 in assay [1] was 163 nM; in assay [2], more than 1000 nM; in assay [3], 110 nM; in assay [4] it was more than 1000 nM.
As for `CC(C)(O)CN1CCN(C(=O)c2cn3nc(-c4ccc(F)cc4)cc(C(C)(C)C)c3n2)C(C)(C)C1=O` [Compound I-225], the IC50 in assay [1] is 2.5 nM; in assay [2], 230 nM; in assay [3], 1.3 nM; in assay [4], 230 nM.
As to `C[C@H]1CN(C(=O)c2cn3nc(-c4ccc(F)cc4)cc(C(C)(C)C)c3n2)C(C)(C)C(=O)N1` [Compound I-226], the IC50 is 760 nM in assay [1], more than 1000 nM in assay [2], 525 nM in assay [3] and more than 1000 nM in assay [4].
In the case of `CC(C)(C)c1cc(-c2ccc(F)cc2)nn2cc(C(=O)N3CCN(C(=O)c4ncc[nH]4)CC3(C)C)nc12` [Compound I-229], the IC50 in assay [1] was 0.8 nM; in assay [2] it was more than 1000 nM; in assay [3], 0.5 nM; in assay [4], more than 1000 nM.
